For assay [1], the system named is IL-23-stimulated phosphorylated STAT3 in peripheral blood mononuclear cells (PBMCs). Description: PBMC pSTAT3 Assay. Conditions: PBMCs from healthy donors; 30 min preincubation with peptide; IL-23 5 ng/mL for 30 min; phospho-STAT3 by MSD. The assay is classed as cell-based. A digest of the protocol: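 Phospho-STAT3 quantified by Meso Scale assay in lysates of PBMCs exposed to IL-23 (5 ng/mL, 30 min, 37 °C) after 30 min peptide pretreatment. Cells were cryopreserved donor PBMCs activated 4 days with anti-CD3 plus IL-1β (100 ng/mL) and starved ~4 h; IC50 reported.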

The target in assay [2] is T1, IL-23R (Homo sapiens, UniProt Q5VWK5).
T1 construct: HEK293 cells containing IL-23R, IL-12Rβ1 and a firefly luciferase reporter gene driven by a STAT-inducible promoter (Promega); host or cells: HEK293
T1 sequence (Q5VWK5 24-629): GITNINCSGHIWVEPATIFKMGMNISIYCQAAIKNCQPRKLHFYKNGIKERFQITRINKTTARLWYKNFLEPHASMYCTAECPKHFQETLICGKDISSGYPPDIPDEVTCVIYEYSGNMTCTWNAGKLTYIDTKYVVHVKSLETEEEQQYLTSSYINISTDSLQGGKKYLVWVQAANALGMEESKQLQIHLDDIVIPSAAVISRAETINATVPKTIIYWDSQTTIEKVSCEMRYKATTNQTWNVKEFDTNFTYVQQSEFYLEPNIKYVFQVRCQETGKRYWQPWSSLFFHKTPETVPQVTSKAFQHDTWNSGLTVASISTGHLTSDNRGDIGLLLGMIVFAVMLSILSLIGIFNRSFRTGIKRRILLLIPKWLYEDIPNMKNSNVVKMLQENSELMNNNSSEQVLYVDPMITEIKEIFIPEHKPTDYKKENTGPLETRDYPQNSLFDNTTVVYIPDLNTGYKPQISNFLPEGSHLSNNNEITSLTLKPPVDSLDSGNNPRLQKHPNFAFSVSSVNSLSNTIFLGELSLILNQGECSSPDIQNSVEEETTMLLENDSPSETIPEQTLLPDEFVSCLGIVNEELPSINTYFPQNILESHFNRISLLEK
Description: IL23R Reporter Assay. The assay is classed as cell-based. Conditions: HEK293 cells containing IL-23R, IL-12Rβ1 and STAT-inducible firefly luciferase reporter; 10 ng/mL IL-23 (EC90); 5 h. A digest of the protocol: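 IC50 values were fitted with a 4-parameter Hill equation to luciferase signal, scaled between IL-23-only wells (0% inhibition) and 30 μM reference inhibitor (100%). The readout was a STAT-inducible reporter in IL-23R/IL-12Rβ1 HEK293 cells, stimulated with added 10 ng/mL IL-23 (EC90) for 5 h at 37° C and developed with BioGlo.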

pIC50: −log10 of the molar value. *1 amine or outer side, *2 acyl side, *3 side chain or, on linkers, in order; H or OH if unused. Where a SMILES comes first, the peptide text is derived from it. Bridges are numbered along the chain shown (N, C = ends). [ ]: non-standard residue; d: D form. The star is where a group is joined. X36 = C[N+](C)(C)CCOCCOCCC(=O)C[C@H](CCCCCC(=O)COCCOCCNC(=O)COCCOCCNC(=O)CC[C@H](NC(=O)CCCCCCCCCCCCCCCCC(=O)O)C(=O)O)C(=O)*; X17 = O=C(O)CCCCCCCCCCCCCCCCCCC(=O)N[C@@H](CCC(=O)NCCOCCOCCOCCOCCOCCOCCOCCOCCOCCOCCOCCOCCOCC(=O)*)C(=O)O; X15 = C[N+](C)(C)CCOCCOCCC(=O)C[C@H](CCCCN[*:1])C(=O)[*:2]; Me3N+(CH2)2O(CH2)2O(CH2)2CO = C[N+](C)(C)CCOCCOCCC(=O)*; PEG12 = NCCOCCOCCOCCOCCOCCOCCOCCOCCOCCOCCOCCOCCC(=O)O; Trp(7-Me) = Cc1cccc2c(C[C@H](N)C(=O)O)c[nH]c12; C18 diacid = O=C(O)CCCCCCCCCCCCCCCCC(=O)*; γGlu = O=C(O)[C@H](CCC(=O)[*:2])N[*:1]; 2Nal = N[C@@H](Cc1ccc2ccccc2c1)C(=O)O; 3Pal = N[C@@H](Cc1cccnc1)C(=O)O; Lys(Me) = CNCCCC[C@H](N)C(=O)O; Pen = CC(C)(S)[C@H](N)C(=O)O; Thp = NC1(C(=O)O)CCOCC1; X1 = C[N+](C)(C)CCCCC*; Sar = CNCC(=O)O

A word on the pIC50: it is the negative decadic logarithm of the IC50, by convention in mol/L. Lower therefore signals a large IC50. As to `CC(=O)N(C)CCCC[C@@H]1NC(=O)[C@H](Cc2c[nH]c3c(C)cccc23)NC(=O)[C@H]([C@@H](C)O)NC(=O)[C@H](CC(=O)N(C)C)NC(=O)[C@@H](NC(=O)[C@@H](CCCCNC(=O)COCCOCCOCCOCCOCCOCCOCCOCCOCCOCCOCCOCCOCCNC(=O)CC[C@H](NC(=O)CCCCCCCCCCCCCCCCCCC(=O)O)C(=O)O)NC(=O)CCOCCOCC[N+](C)(C)C)C(C)(C)SSC(C)(C)[C@@H](C(=O)N[C@@H](Cc2ccc(OCCCCC[N+](C)(C)C)cc2)C(=O)N[C@@H](Cc2ccc3ccccc3c2)C(=O)NC2(C(=O)N[C@@H](CCCCN(C)C(C)=O)C(=O)N[C@@H](CC(N)=O)C(=O)N[C@@H](Cc3cccnc3)C(=O)N(C)CC(=O)N(C)C)CCOCC2)NC1=O` [compound 130, cPEG3aCO-k(PEG12gEC20OH)-Pen(3)-N(N(Me)2)-T-7MeW-K(NMeAc)-Pen(3)-TMAPF-2Nal-THP-K(NMeAc)-N-3Pya-Sar-CON(Me)2] ({Me3N+(CH2)2O(CH2)2O(CH2)2CO}-[dK](X17)[Pen]D(NMe2)T[Trp(7-Me)][Lys(Me)](Ac)[Pen]Y(X1)[2Nal][Thp][Lys(Me)](Ac)N[3Pal][Sar]-NMe2; disulfide 2-7), the pIC50 is greater than 9.30 in assay [1] and greater than 7.30 in assay [2].
For `CC(=O)N(C)CCCC[C@@H]1NC(=O)[C@H](Cc2c[nH]c3c(C)cccc23)NC(=O)[C@H]([C@@H](C)O)NC(=O)[C@H](CC(=O)N(C)C)NC(=O)[C@@H](NC(=O)[C@@H](CCCCCC(=O)COCCOCCNC(=O)COCCOCCNC(=O)CC[C@H](NC(=O)CCCCCCCCCCCCCCCCC(=O)O)C(=O)O)CC(=O)CCOCCOCC[N+](C)(C)C)C(C)(C)SSC(C)(C)[C@@H](C(=O)N[C@@H](Cc2ccc(OCCCCC[N+](C)(C)C)cc2)C(=O)N[C@@H](Cc2ccc3ccccc3c2)C(=O)NC2(C(=O)N[C@@H](CCCCN(C)C(C)=O)C(=O)N[C@@H](CC(N)=O)C(=O)N[C@@H](Cc3cccnc3)C(=O)N(C)CC(=O)N(C)C)CCOCC2)NC1=O` [compound 131, cPEG3aCO-k(PEG2PEG2gEC18OH)-Pen(3)-N(N(Me)2)-T-7MeW-K(NMeAc)-Pen(3)-TMAPF-2Nal-THP-K(NMeAc)-N-3Pya-Sar-CON(Me)2] (X36-[Pen]D(NMe2)T[Trp(7-Me)][Lys(Me)](Ac)[Pen]Y(X1)[2Nal][Thp][Lys(Me)](Ac)N[3Pal][Sar]-NMe2; disulfide 1-6) the same measures were greater than 9.30 and greater than 7.30.
Consider `CC(=O)N(C)CCCC[C@@H]1NC(=O)[C@H](Cc2c[nH]c3c(C)cccc23)NC(=O)[C@H]([C@@H](C)O)NC(=O)[C@H](CC(=O)N(C)C)NC(=O)[C@@H](NC(=O)[C@@H](CCCCNC(=O)CCOCCOCCOCCOCCOCCOCCOCCOCCOCCOCCOCCOCCNC(=O)CC[C@H](NC(=O)CCCCCCCCCCCCCCCCC(=O)O)C(=O)O)CC(=O)CCOCCOCC[N+](C)(C)C)C(C)(C)SSC(C)(C)[C@@H](C(=O)N[C@@H](Cc2ccc(OCCCCC[N+](C)(C)C)cc2)C(=O)N[C@@H](Cc2ccc3ccccc3c2)C(=O)NC2(C(=O)N[C@@H](CCCCN(C)C(C)=O)C(=O)N[C@@H](CC(N)=O)C(=O)N[C@@H](Cc3cccnc3)C(=O)N(C)CC(=O)N(C)C)CCOCC2)NC1=O` [compound 132, cPEG3aCO-k(PEG12gEC18OH)-Pen(3)-N(N(Me)2)-T-7MeW-K(NMeAc)-Pen(3)-TMAPF-2Nal-THP-K(NMeAc)-N-3Pya-Sar-CON(Me)2] ({C18 diacid-γGlu-PEG12}-[X15][Pen]D(NMe2)T[Trp(7-Me)][Lys(Me)](Ac)[Pen]Y(X1)[2Nal][Thp][Lys(Me)](Ac)N[3Pal][Sar]-NMe2; disulfide 2-7), for which the pIC50 in assay [1] is greater than 9.30; in assay [2] it was greater than 7.30.

The values are drawn from patent US20260250320A1, “LIPIDATED PEPTIDE INHIBITORS OF INTERLEUKIN-23 RECEPTOR” (Janssen Pharmaceutica NV, priority 2023, published 2026).
